Reference: US20070270462A1, “8-hydroxyquinoline compounds for treating a polyglutamine (polyQ)-expansion disease” (priority 2005, published 2007)

How the values were obtained:
R6/2 mice [1] = assay: Rotarod performance in R6/2 mice; format: in vivo, mouse; details: between ninth and eleventh weeks of age, oral CQ 30 mg/kg/day
Protocol: A colony of transgenic mice strain R6/2 that is heterozygous for htt exon1 (containing 145 CAG repeats) was maintained, with founders originating and available from The Jackson Laboratory (Bar Harbor, Me., USA). Male transgenic R6/2 mice were bred with background strain (B6CBAFI/J) females. Genotyping was done according to Hockly et al, Brain Res Bull 61, 469-479, 2003. CQ in water was orally administered to mice at 30 mg/kg/day starting at 3 weeks of age and continued until the mice were deceased or sacrificed for tissues. Littermate R6/2 mice were gavaged with water vehicle alone. […] Blood glucose levels were determined after at least 8 hrs of fasting in 11-week old mice (n=6 for wild-type, n=4 for vehicle-treated R6/2, n=6 for CQ-treated R6/2 littermates) using a 2300 STAT Plus glucose analyzer (YSI, Yellowsonte, Ohio, USA). Fasting blood insulin levels in animals fasted for 8 hrs were measured using an Ultra Sensitive Rat Insulin ELISA Kit (Crystal Chem, Inc., Downers Grove, Ill., USA) according to manufacturer's instructions.
Rotarod performance (n≧6 for each treatment group) was assessed as described by Hockly et al., 2003 Supra with the modification that the SDI Rota-Rod (San Diego Instruments, San Diego, Calif.) was set to linearly increase in speed to 40 rpm in 4 min ramp time. […]

R6/2 mice [2] = assay: Body weight of R6/2 mice; format: in vivo, mouse; details: 10th and 11th weeks, oral CQ 30 mg/kg/day
Protocol: A colony of transgenic mice strain R6/2 that is heterozygous for htt exon1 (containing 145 CAG repeats) was maintained, with founders originating and available from The Jackson Laboratory (Bar Harbor, Me., USA). Male transgenic R6/2 mice were bred with background strain (B6CBAFI/J) females. Genotyping was done according to Hockly et al, Brain Res Bull 61, 469-479, 2003. CQ in water was orally administered to mice at 30 mg/kg/day starting at 3 weeks of age and continued until the mice were deceased or sacrificed for tissues. Littermate R6/2 mice were gavaged with water vehicle alone. At the end of CQ treatment mice were anesthetized and transcardially perfused with PBS followed by 4% v/v paraformaldehyde. Blood glucose levels were determined after at least 8 hrs of fasting in 11-week old mice (n=6 for wild-type, n=4 for vehicle-treated R6/2, n=6 for CQ-treated R6/2 littermates) using a 2300 STAT Plus glucose analyzer (YSI, Yellowsonte, Ohio, USA). Fasting blood insulin levels in animals fasted for 8 hrs were measured using an Ultra Sensitive Rat Insulin ELISA Kit (Crystal Chem, Inc., Downers Grove, Ill., USA) according to manufacturer's instructions. […]

R6/2 mice [3] = assay: Fasting blood glucose in R6/2 mice; format: in vivo, mouse; details: 11-week old R6/2 mice after 8 weeks of CQ treatment, mean ± s.e.m.
Protocol: A colony of transgenic mice strain R6/2 that is heterozygous for htt exon1 (containing 145 CAG repeats) was maintained, with founders originating and available from The Jackson Laboratory (Bar Harbor, Me., USA). Male transgenic R6/2 mice were bred with background strain (B6CBAFI/J) females. Genotyping was done according to Hockly et al, Brain Res Bull 61, 469-479, 2003. CQ in water was orally administered to mice at 30 mg/kg/day starting at 3 weeks of age and continued until the mice were deceased or sacrificed for tissues. Littermate R6/2 mice were gavaged with water vehicle alone. At the end of CQ treatment mice were anesthetized and transcardially perfused with PBS followed by 4% v/v paraformaldehyde. Blood glucose levels were determined after at least 8 hrs of fasting in 11-week old mice (n=6 for wild-type, n=4 for vehicle-treated R6/2, n=6 for CQ-treated R6/2 littermates) using a 2300 STAT Plus glucose analyzer (YSI, Yellowsonte, Ohio, USA). Fasting blood insulin levels in animals fasted for 8 hrs were measured using an Ultra Sensitive Rat Insulin ELISA Kit (Crystal Chem, Inc., Downers Grove, Ill., USA) according to manufacturer's instructions.
Consistent with the blood glucose level was a reciprocal change in blood insulin levels.
Data are mean+s.e.m. n≧4 for each treatment group. *P<0.0004 for glucose, **P=0.0065 for insulin levels comparing vehicle and CQ-treated groups.

YAC72 mice = format: in vivo
Source text: Lower dosages need to be investigated to determine if such doses improve the effect. […] Moreover, since the drug is given as a single daily dose in a water suspension, it is possible that the window of time in which the blood levels are therapeutic may be small, perhaps only a few hours a day. To address these issues, it is proposed to use the R6/2 short term model for a dose-response study and then examine the effects of treatment on the longer term, milder YAC72 model. YAC72 animals carry a portion of a yeast artificial chromosome (YAC) bearing a full-length human htt gene (including the promoter) that is modified with a 72 CAG repeat expansion in exon 1. […]
CQ is delivered blended into food pellets with vitamin B12 supplementation. […] In addition, it is determined what is the average rate of consumption and fluctuations in consumption rate through the course of the day. These parameters are measured periodically in test subjects as well, to allow adjustment of dosing for body weight and food intake. […] Animals are evaluated for a variety of parameters including clasping, rotarod performance, body weight, and survival, and animals are sacrificed at 12 weeks for western and immunohistochemical analysis of huntingtin fragment accumulation and striatal atrophy. […]

Structure (SMILES): Oc1c(I)cc(Cl)c2cccnc12 [CQ, 5-chloro-7-iodo-8-hydroxy-quinoline]
- rotarod performance (R6/2 mice [1]): scored significantly better
- body weight (R6/2 mice [2]): significantly greater than untreated animals
- fasting blood glucose level (R6/2 mice [3]): 4.1 ± 0.3 mM
- behavioral and pathologic features (YAC72 mice; YAC72 mice, chronic CQ with B12 supplementation): significantly mitigate the behavioral and pathologic features
- tolerability of chronic CQ administration (YAC72 mice; mouse, in vivo): well tolerated
